Assay [1] has as its system E. coli BT3/pACYCSP strain. Description: Growth of E. coli BT3/pACYCSP with herbicidal compound (absorbance at 600 nm). The settings on record: 18 hours culture, A600, medium without compound = 1, Table 1. It is filed as cell-based, Escherichia coli. The text has this:
(§1) According to the description of Gibson, L. C. D. et al., Proc. Natl. Acad. Sci. USA, 92; p 1941 (1995), the DNA fragment containing bchH gene prepared in Example 1 was digested with the restriction enzymes NdeI and BglII. The resultant DNA fragment was inserted between NdeI restriction site and BamHI restriction site of expression vector pET11a (manufactured by Stratagene) to obtain plasmid pETBCH (FIG. 1). This plasmid pETBCH was introduced into E. coli BL21(DE3) strain competent cells (manufactured by Stratagene) according to the manual attached to the competent cells to obtain E. coli BL21(DE3)/pETBCH strain. The strain was inoculated into 1.5 ml LB liquid culture medium (1% tryptone, 0.5% yeast extract, 0.5% NaCl) containing 100 μg/ml ampicillin in a tube (14×10 mm), and the tube was covered with aluminum foil (hereinafter referred to as dark conditions), cultured with shaking at 37° C. under light of fluorescent lamp (about 8000 lux). When the absorbance at 600 nm of the liquid culture medium became about 0.6, isopropyl β-D-thiogalactopyranoside (IPTG) was added to the liquid culture medium so that the final concentration was 0.4 mM, and the culture was continued for about additional 20 hours. […] In contrast to this, when E. coli BL21(DE3)/pETBCH strain was cultured according to the same manner (with IPTG) except that the tube was not covered with aluminum foil (hereinafter referred to as light conditions), E. coli grew and turned red as above.
The plasmid pSPPO-P was digested with restriction enzyme PshBI, the resultant DNA fragment was blunted by using T4 DNA polymerase and further digested with SphI to isolate the DNA fragment containing chloroplast-type PPO gene of soybean and lac promoter. Then, the plasmid pACYC184 (manufactured by Nippon Gene) was digested with the restriction enzymes NruI and SphI to remove a fragment of 410 bp and the above DNA fragment was inserted instead to obtain plasmid pACYCSP (FIG. 2). […]
E. coli BT3/pACYCSP strain prepared in Example 3 was inoculated into YPT medium containing 10 or 1 ppm of PPO inhibitory type herbicidal compound represented by the above Structure 8, 10 μg/ml hemin, 50 μg/ml aminolevulinic acid, 15 μg/ml chloramphenicol and 10 μg/ml kanamycin, cultured under dark conditions or light conditions according to the same manner as in Example 2. […] Then, 18 hours after initiation of culture, the absorbance of the liquid culture medium was measured at 600 nm. By taking the absorbance of the medium without the herbicidal compound as 1, the relative value of the absorbance of the medium containing the herbicidal compound was calculated.

The test system of assay [2] is E. coli BT3/pACYCSP+pCR2.1 strain. Put plainly: Growth of E. coli BT3/pACYCSP+pCR2.1 (vector control) with herbicidal compound. It is filed as cell-based, Escherichia coli. The settings on record: 18 hours culture, Table 6.
Source text: as §1
The plasmid pTCHLH1 and pCR2.1 prepared in Example 7 were introduced into E. coli BT3/pACYCSP strain prepared in Example 3, respectively according to the method described in Hanahan, D. J., Mol. Biol., 166; p 557 (1983). E. coli BT3/pACYCSP+pTCHLH1 strain bearing plasmids pACYCSP and pTCHLH1, and E. coli BT3/pACYCSP+pCR2.1 strain bearing plasmids pACYCSP and pCR2.1 were obtained by culturing the above strains in YPT medium containing 100 μg/ml ampicillin, 15 μg/ml chloramphenicol and 50 μg/ml kanamycin, respectively.
These E. coli strains were inoculated into YPT medium containing 10 or 1 ppm of the PPO inhibitory-type herbicidal compound represented by Structure 8, 100 μg/ml ampicillin, 15 μg/ml chloramphenicol, 50 μg/ml kanamycin, 10 μg/ml hemin and 50 μg/ml aminolevulinic acid, cultured under dark conditions or light conditions according to the same manner as in Example 2. Then, 18 hours after initiation of culture, the absorbance of the liquid culture medium was measured at 600 nm. By taking the absorbance of the medium without the herbicidal compound as 1, the relative value of the absorbance of the medium containing the herbicidal compound was calculated.

With `C#CCOc1cc(N2C(=O)C3=C(CCCC3)C2=O)c(F)cc1Cl` [Structure 8], the Relative absorbance stood at 0.95 in assay [1] (in the dark, 1 ppm); 0.73 in assay [1] (in the dark, 10 ppm); 0.25 in assay [1] (in the light, 1 ppm); 0.10 in assay [1] (in the light, 10 ppm); 1.0 in assay [2] (in the dark, 1 ppm); 1.0 in assay [2] (in the dark, 10 ppm). Also, the Relative absorbance in assay [2] (in the light, 1 ppm) is 0.08; in assay [2] (in the light, 10 ppm), 0.03.

The record behind these values is patent US7973219B2, “Method for producing transgenic plants resistant to weed control compounds which disrupt the porphyrin pathways of plants” (Sumitomo Chemical Company, Limited, priority 1998, dated 2011).
